{"source": "paper PMC6982876", "about": "“Synthesis of Novel Benzodifuranyl; 1,3,5-Triazines; 1,3,5-Oxadiazepines; and Thiazolopyrimidines Derived from Visnaginone and Khellinone as Anti-Inflammatory and Analgesic Agents” (Molecules, 2020)", "key": {"ovine COX-1": {"molecular_target": "T1, ovine COX-1 (Ovis aries, UniProt P05979)", "T1 construct": "purchased Cayman Chemical, Ann Arbor, MI, USA 560131", "T1 sequence (P05979 25-600)": "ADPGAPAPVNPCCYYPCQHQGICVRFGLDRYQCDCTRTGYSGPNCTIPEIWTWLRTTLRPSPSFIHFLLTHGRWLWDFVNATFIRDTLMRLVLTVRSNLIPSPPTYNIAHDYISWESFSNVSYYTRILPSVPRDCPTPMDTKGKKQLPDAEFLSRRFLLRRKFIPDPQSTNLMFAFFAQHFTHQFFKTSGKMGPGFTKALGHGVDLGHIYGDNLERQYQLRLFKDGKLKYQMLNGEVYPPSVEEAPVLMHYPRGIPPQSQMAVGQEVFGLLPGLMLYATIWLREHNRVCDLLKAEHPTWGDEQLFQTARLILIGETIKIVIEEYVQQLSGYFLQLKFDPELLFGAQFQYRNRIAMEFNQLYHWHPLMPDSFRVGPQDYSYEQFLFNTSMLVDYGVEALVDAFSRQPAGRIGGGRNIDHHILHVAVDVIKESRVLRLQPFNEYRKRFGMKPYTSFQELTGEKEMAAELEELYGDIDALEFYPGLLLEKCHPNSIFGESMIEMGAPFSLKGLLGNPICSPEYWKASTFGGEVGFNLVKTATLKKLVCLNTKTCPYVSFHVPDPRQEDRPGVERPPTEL", "assay": "In vitro COX inhibitor screening assay (EIA kit, Cayman), COX-1", "type": "biochemical", "conditions": "mean of two determinations, enzyme kit, read-out: COX1 IC50", "description": "(§1) Furthermore, the selectivity index for COX-2 (COX-1 IC50 / COX-2 IC50) was calculated for the compounds."}, "human recombinant COX-2": {"molecular_target": "T2, human recombinant COX-2 (Homo sapiens, UniProt P35354)", "T2 construct": "purchased Cayman Chemical, Ann Arbor, MI, USA 560131", "T2 sequence (P35354 18-604)": "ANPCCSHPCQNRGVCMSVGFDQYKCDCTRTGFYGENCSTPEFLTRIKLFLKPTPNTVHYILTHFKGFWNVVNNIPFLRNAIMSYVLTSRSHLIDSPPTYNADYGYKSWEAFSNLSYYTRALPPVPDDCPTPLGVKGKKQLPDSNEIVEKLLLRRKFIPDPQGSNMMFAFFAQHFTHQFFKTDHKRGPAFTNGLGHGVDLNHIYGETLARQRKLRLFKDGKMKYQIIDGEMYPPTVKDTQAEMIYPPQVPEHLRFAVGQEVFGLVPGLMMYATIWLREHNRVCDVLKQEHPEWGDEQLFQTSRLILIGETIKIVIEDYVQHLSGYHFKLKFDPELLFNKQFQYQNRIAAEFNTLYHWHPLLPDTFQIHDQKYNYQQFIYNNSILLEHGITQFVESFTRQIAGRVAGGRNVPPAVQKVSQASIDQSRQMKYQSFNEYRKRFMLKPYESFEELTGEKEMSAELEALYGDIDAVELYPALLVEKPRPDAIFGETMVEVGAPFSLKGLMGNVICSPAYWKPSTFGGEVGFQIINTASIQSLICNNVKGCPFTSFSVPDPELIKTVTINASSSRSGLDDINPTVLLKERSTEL", "assay": "In vitro COX inhibitor screening assay (EIA kit, Cayman), COX-2", "type": "biochemical", "conditions": "for COX2 (SI) selectivity index: COX-1 IC50 / COX-2 IC50; for IC50: COX-2, mean of two determinations, enzyme kit, read-out: COX2 IC50", "description": "as §1"}, "[1]": {"test_system": "acetic acid-induced writhing in mice", "assay": "Acetic acid-induced writhing test (analgesic activity)", "type": "in vivo", "conditions": "10 mg/kg p.o., n = 5; for Writhing Number in 20 min (Mean ± SEM): acetic acid 1 h after dosing; for Analgesic Activity (% protection): writhing test", "in_short": "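Mice of 25–30 g, fasted 8 h, given compound at 10 mg/kg p.o., five animals per group. One hour later, 1% acetic acid i.p. (0.1 mL/10 g); writhes counted over 20 min. Percent protection calculated against the saline control group.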"}, "[2]": {"test_system": "carrageenan-induced paw edema in rats", "assay": "Carrageenan-induced paw edema (anti-inflammatory activity)", "type": "in vivo", "conditions": "10 mg/kg oral; for % Change in Paw Height (Mean ± SEM): n = 5", "in_short": "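Albino rats weighing 150–180 g, in groups of five, received test compounds orally at 10 mg/kg; one hour later 0.1 mL of 1% carrageenan was injected into the left hind paw. Paw inflammation height was measured by digital caliber plethysmometer at 0, 1, 2 and 3 h, expressed as percentage increase relative to the uninjected right paw, with percentage edema inhibition versus control calculated at 3 h.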"}, "[3]": {"test_system": "interleukin-1 beta (IL-1 β)", "assay": "ELISA of serum interleukin-1 beta after paw edema test", "type": "in vivo, rats", "conditions": "rat serum at the end of the paw edema test, mean ± SEM, n = 5", "description": "IL1 is one of the important inflammatory mediators and is used to confirm the anti-inflammatory activities of new anti-inflammatory compounds. At the end of the paw edema test, blood samples were collected from the orbital axis of the eye under light ether anesthesia. Sera were separated after centrifugation of blood at 5000 rpm for 15 min; the sera were stored at –80 °C until the ELISA assay was performed according to the manufacturer instructions."}}, "note": "Marks after values point to notes of the source that are not given here.", "data": [{"compound": "COc1ccc(C=C2OC(c3oc4cc5occc5c(OC)c4c3C)=NC3=CC(=O)N4C(=O)C(=Cc5ccc(OC)cc5)SC4N3C2=O)cc1", "note": "(stereo not drawn) [Compound 13c, 8-(4-methoxy-3-methylbenzo[1,2-b:5,4-b`]difuran-2-yl)-2,10-bis(4-methoxybenzylidene)-5H,12aH-thiazolo[2’,3’:2,3]pyrimido[6,1-d][1,3,5]oxadiazepine-3,5,11(2H,10H)-trione]", "values": [{"measurement": "IC50", "setting": "ovine COX-1", "result": 5.52, "unit": "µM"}, {"measurement": "COX2 (SI) selectivity index", "setting": "human recombinant COX-2", "result": 92}, {"measurement": "IC50", "setting": "human recombinant COX-2", "result": 0.06, "unit": "µM"}, {"measurement": "Writhing Number in 20 min (Mean ± SEM)", "setting": "[1]", "result": "31 ± 1.1 ^a"}, {"measurement": "Analgesic Activity (% protection)", "setting": "[1]", "result": "44 ± 0.85 ^a %"}, {"measurement": "% Change in Paw Height (Mean ± SEM)", "setting": "[2]; 1 hr after carrageenan", "result": "0.25 ± 0.01 ^a %"}, {"measurement": "% Change in Paw Height (Mean ± SEM)", "setting": "[2]; 2 hr after carrageenan", "result": "0.19 ± 0.02 ^a %"}, {"measurement": "Anti-Inflammatory Activity (% Inhibition of Edema)", "setting": "[2]; 3 hr after carrageenan", "result": 61, "unit": "%"}, {"measurement": "% Change in Paw Height (Mean ± SEM)", "setting": "[2]; 3 hr after carrageenan", "result": "0.22 ± 0.02 ^a %"}, {"measurement": "IL-1 β Concentration", "setting": "[3]", "result": "37 ± 0.57 ^b Pg /mL"}, {"measurement": "melting point", "result": "> 350", "unit": "°C"}]}, {"compound": "COc1ccc(C=C2OC(c3oc4c(OC)c5occc5c(OC)c4c3C)=NC3=CC(=O)N4C(=O)C(=Cc5ccc(OC)cc5)SC4N3C2=O)cc1", "note": "(stereo not drawn) [Compound 13f, 8-(4,8-dimethoxy-3-methylbenzo[1,2-b:5,4-b`]difuran-2-yl)-2,10-bis(4-methoxybenzylidene)-5H,12aH-thiazolo[2’,3’:2,3]pyrimido[6,1-d][1,3,5]oxadiazepine-3,5,11(2H,10H)-trione]", "values": [{"measurement": "IC50", "setting": "ovine COX-1", "result": 5.45, "unit": "µM"}, {"measurement": "COX2 (SI) selectivity index", "setting": "human recombinant COX-2", "result": 94}, {"measurement": "IC50", "setting": "human recombinant COX-2", "result": 0.058, "unit": "µM"}, {"measurement": "Writhing Number in 20 min (Mean ± SEM)", "setting": "[1]", "result": "30 ± 1.8 ^a"}, {"measurement": "Analgesic Activity (% protection)", "setting": "[1]", "result": "45 ± 0.95 ^a %"}, {"measurement": "% Change in Paw Height (Mean ± SEM)", "setting": "[2]; 1 hr after carrageenan", "result": "0.24 ± 0.02 ^a %"}, {"measurement": "% Change in Paw Height (Mean ± SEM)", "setting": "[2]; 2 hr after carrageenan", "result": "0.18 ± 0.02 ^a %"}, {"measurement": "Anti-Inflammatory Activity (% Inhibition of Edema)", "setting": "[2]; 3 hr after carrageenan", "result": 62, "unit": "%"}, {"measurement": "% Change in Paw Height (Mean ± SEM)", "setting": "[2]; 3 hr after carrageenan", "result": "0.21 ± 0.01 ^a %"}, {"measurement": "IL-1 β Concentration", "setting": "[3]", "result": "36 ± 0.25 ^b Pg /mL"}, {"measurement": "melting point", "result": "> 350", "unit": "°C"}]}, {"compound": "COc1c2occc2c(OC)c2c(C)c(C(=Nc3cc(N4CCOCC4)nc(N4CCOCC4)n3)N3CCOCC3)oc12", "note": "[Compound 10d, 1-(4,8-dimethoxy-3-methylbenzo [1,2-b: 5,4-b`]difuran-2-yl)-N-(2,6-dimorpholino-pyrimidin-4-yl)-1-morpholinomethanimine]", "values": [{"measurement": "IC50", "setting": "ovine COX-1", "result": 4.45, "unit": "µM"}, {"measurement": "COX2 (SI) selectivity index", "setting": "human recombinant COX-2", "result": 97}, {"measurement": "IC50", "setting": "human recombinant COX-2", "result": 0.046, "unit": "µM"}, {"measurement": "Writhing Number in 20 min (Mean ± SEM)", "setting": "[1]", "result": "26 ± 1.2 ^a"}, {"measurement": "Analgesic Activity (% protection)", "setting": "[1]", "result": "49 ± 1.1 ^a %"}, {"measurement": "% Change in Paw Height (Mean ± SEM)", "setting": "[2]; 1 hr after carrageenan", "result": "0.20 ± 0.01 ^a %"}, {"measurement": "% Change in Paw Height (Mean ± SEM)", "setting": "[2]; 2 hr after carrageenan", "result": "0.15 ± 0.02 ^a %"}, {"measurement": "Anti-Inflammatory Activity (% Inhibition of Edema)", "setting": "[2]; 3 hr after carrageenan", "result": 66, "unit": "%"}, {"measurement": "% Change in Paw Height (Mean ± SEM)", "setting": "[2]; 3 hr after carrageenan", "result": "0.17 ± 0.02 ^a %"}, {"measurement": "IL-1 β Concentration", "setting": "[3]", "result": "32 ± 0.45 ^b Pg /mL"}, {"measurement": "melting point", "result": "> 350", "unit": "°C"}]}]}
